Results published in publication PMC9304322, “Targeting retinoic acid receptor alpha-corepressor interaction activates chaperone-mediated autophagy and protects against retinal degeneration” (Nature Communications, 2022).
Several values for one entry are separate records, joined by “and”; a condition that tells them apart may be missing. Identical values can stand only once.

What was measured:
[1] = tested on: NIH3T3 stably expressing the KFERQ-PS-Dendra; assay: CMA activity, KFERQ-PS-Dendra fluorescent reporter in NIH3T3 mouse fibroblasts; assay type: cell-based; design: CMA activity (Fig. 1d), MEAN / CMA activity (Fig. 1e-g), mean / CMA activity (Fig. 1d), individual experiments / CMA activity, mean (Fig. S2c, second panel) / CMA activity, mean (Fig. S2c, first panel) / CMA activity, mean (Fig. S2c, third panel): unit not given here; conditions: for CMA activity (Fig. 1e-g), mean: n = 4; for CMA activity, mean (Fig. S2c, first panel) / CMA activity, mean (Fig. S2c, second panel) / CMA activity, mean (Fig. S2c, third panel): compound and cell type of panel not shown
Experimental: (§1) Cells were transduced with lentivirus carrying the KFERQ-PS-Dendra reporter as before. Cells were photoactivated by exposure to a 3.5 mA (current constant) light emitting diode (LED: Norlux, 405 nm) for 3 min and then plated in glass-bottom 96 well plates. At the desired times, cells were fixed with 4% PFA and imaged using high-content microscopy (Operetta system, Perkin Elmer). Images were quantified using the manufacturer’s software in a minimum of 1,200 cells in 9 independent fields per well. […] This was particularly important in the case of primary human cells where the efficiency of transduction was ~65%. To avoid confounding effects for drug-induced changes in cell volume or adherence to the plate that could bring a fraction of the cells per field outside of focus, we set a threshold to count only […] that have at least 1/10 of the average number of […] detected in the untreated wells for each cell type (3–4 puncta/cell in the case of NIH3T3 and N2a cells and 5 puncta/cell in primary human fibroblasts).

[2] = tested on: NIH3T3 cells stably expressing the mCherry-GFP-LC3 reporter; assay: Macroautophagy activity, mCherry-GFP-LC3 reporter; assay type: cell-based, mouse
Experimental: Cells were transduced with a lentiviral vector expressing mCherry-GFP-LC3[35], fixed and flux determined as the conversion of dual fluorescence puncta (autophagosomes) into only red fluorescent puncta (autolysosomes). Flux was also measured by immunoblot for LC3 in cells incubated for 6 h with 20 mM NH4Cl/100 μM leupeptin, by discounting the intensity of LC3 in non-treated cells from that in cells treated with the inhibitors.

[3] = tested on: primary human fibroblast expressing the KFERQ-PS-Dendra reporter; assay: CMA activity, KFERQ-PS-Dendra reporter in primary human fibroblasts; assay type: cell-based; design: key to CMA activity, mean (Fig. S2c): puncta per cell
Experimental: as §1

[4] = concentration 10 (unit not given)
[5] = concentration 15 (unit not given)
[6] = concentration 20 (unit not given)
[7] = concentration 25 (unit not given)
[8] = concentration 30 (unit not given)
[9] = concentration 40 (unit not given)
[10] = concentration 50 (unit not given)
[11] = c0 = 2 (axis unlabelled; ANOVA calls row factor Time)

Clc1ccc2c(c1)OCC(c1ccc(-c3ccccc3)cc1)=N2 [CA39]
CMA activity (Fig. 1d), MEAN ([1]; 20 μM of each compound, n = 3 independent experiments): 4.580
CMA activity (Fig. 1d), individual experiments ([1]; 20 μM of each compound, single experiments): 5.482 and 4.270 and 3.988
CMA activity (Fig. 1e-g), mean ([1]; 12h, concentration 0.02 (unit not given)): 3.045
CMA activity (Fig. 1e-g), mean ([1]; 12h, concentration 0.2): 3.489
CMA activity (Fig. 1e-g), mean ([1]; 12h, concentration 2): 3.493
CMA activity (Fig. 1e-g), mean ([1]; 12h, concentration 5): 8.168
CMA activity (Fig. 1e-g), mean ([1]; 12h, concentration 10): 10.4134
CMA activity (Fig. 1e-g), mean ([1]; 12h, concentration 20): 22.9828
CMA activity (Fig. 1e-g), mean ([1]; 12h, concentration 30): 30.7253
CMA activity (Fig. 1e-g), mean ([1]; 12h, concentration 40): 33.0782
CMA activity (Fig. 1e-g), mean ([1]; 12h, concentration 50): 21.8692
CMA activity (Fig. 1e-g), mean ([1]; 24h, concentration 0.02): 3.576
CMA activity (Fig. 1e-g), mean ([1]; 24h, concentration 0.2): 3.419
CMA activity (Fig. 1e-g), mean ([1]; 24h, concentration 2): 5.488
CMA activity (Fig. 1e-g), mean ([1]; 24h, concentration 5): 11.6083
CMA activity (Fig. 1e-g), mean ([1]; 24h, concentration 10): 17.8717
CMA activity (Fig. 1e-g), mean ([1]; 24h, concentration 20): 34.1318
CMA activity (Fig. 1e-g), mean ([1]; 24h, concentration 30): 35.2802
CMA activity (Fig. 1e-g), mean ([1]; 24h, concentration 40): 50.2311
CMA activity (Fig. 1e-g), mean ([1]; 24h, concentration 50): 60.1885
CMA activity (Fig. 1h-j), mean, untreated (0) = 1 ([1]; concentration 0.2, 12+12w (12 h, then 12 h after washing out)): 1.104
CMA activity (Fig. 1h-j), mean, untreated (0) = 1 ([1]; concentration 0.2, 12h): 0.9726
CMA activity (Fig. 1h-j), mean, untreated (0) = 1 ([1]; concentration 0.2, 24h): 1.209
CMA activity (Fig. 1h-j), mean, untreated (0) = 1 ([1]; concentration 2, 12+12w): 1.202
CMA activity (Fig. 1h-j), mean, untreated (0) = 1 ([1]; concentration 2, 12h): 0.9735
CMA activity (Fig. 1h-j), mean, untreated (0) = 1 ([1]; concentration 2, 24h): 1.941
CMA activity (Fig. 1h-j), mean, untreated (0) = 1 ([1]; concentration 5, 12+12w): 1.546
CMA activity (Fig. 1h-j), mean, untreated (0) = 1 ([1]; concentration 5, 12h): 2.277
CMA activity (Fig. 1h-j), mean, untreated (0) = 1 ([1]; concentration 5, 24h): 4.106
CMA activity, mean (Fig. S2c, first panel) [1, 4]: 74.2616
CMA activity, mean (Fig. S2c, second panel) [1, 4]: 29.9019
CMA activity, mean (Fig. S2c, third panel) [1, 4]: 74.2616
CMA activity (Fig. 1h-j), mean, untreated (0) = 1 ([1]; concentration 10, 12+12w): 2.775
CMA activity (Fig. 1h-j), mean, untreated (0) = 1 ([1]; concentration 10, 12h): 2.902
CMA activity (Fig. 1h-j), mean, untreated (0) = 1 ([1]; concentration 10, 24h): 6.322
CMA activity, mean (Fig. S2c, first panel) [1, 5]: 68.2986
CMA activity, mean (Fig. S2c, second panel) [1, 5]: 41.4399
CMA activity, mean (Fig. S2c, third panel) [1, 5]: 68.2986
CMA activity, mean (Fig. S2c, first panel) [1, 6]: 74.8347
CMA activity, mean (Fig. S2c, second panel) [1, 6]: 54.0516
CMA activity, mean (Fig. S2c, third panel) [1, 6]: 74.8347
CMA activity (Fig. 1h-j), mean, untreated (0) = 1 ([1]; concentration 20, 12+12w): 4.843
CMA activity (Fig. 1h-j), mean, untreated (0) = 1 ([1]; concentration 20, 12h): 6.406
CMA activity (Fig. 1h-j), mean, untreated (0) = 1 ([1]; concentration 20, 24h): 12.0736
CMA activity, mean (Fig. S2c, first panel) [1, 7]: 71.1281
CMA activity, mean (Fig. S2c, second panel) [1, 7]: 57.8636
CMA activity, mean (Fig. S2c, third panel) [1, 7]: 71.1281
CMA activity, mean (Fig. S2c, first panel) [1, 8]: 76.3164
CMA activity, mean (Fig. S2c, second panel) [1, 8]: 40.4368
CMA activity, mean (Fig. S2c, third panel) [1, 8]: 76.3164
CMA activity (Fig. 1h-j), mean, untreated (0) = 1 ([1]; concentration 30, 12+12w): 9.0956
CMA activity (Fig. 1h-j), mean, untreated (0) = 1 ([1]; concentration 30, 12h): 8.564
CMA activity (Fig. 1h-j), mean, untreated (0) = 1 ([1]; concentration 30, 24h): 12.4798
CMA activity, mean (Fig. S2c, first panel) [1, 9]: 78.3071
CMA activity, mean (Fig. S2c, second panel) [1, 9]: 58.9165
CMA activity, mean (Fig. S2c, third panel) [1, 9]: 78.3071
CMA activity, mean (Fig. S2c, first panel) [1, 10]: 53.1619
CMA activity, mean (Fig. S2c, second panel) [1, 10]: 68.5848
CMA activity, mean (Fig. S2c, third panel) [1, 10]: 53.1619
CMA activation compared with AR7 ([1]; fluorescent CMA reporter in mouse fibroblasts, basal and inducible CMA): > 40 % CMA of AR7
toxicity in cells ([1]; mouse fibroblasts): without noticeable toxicity
effect on macroautophagy ([2]; NIH3T3, MRT-sensitive proteolysis, LC3-II flux, mCherry-GFP-LC3 reporter): did not have the inhibitory effect on macroautophagy
APG (Fig. S3e) [2, 11]: 3.494
AUT (Fig. S3e) [2, 11]: 0.8582
AV (Fig. S3e) [2, 11]: 4.352
APG (Fig. S3e) ([2]; c0 = 5 (axis unlabelled)): 2.288
AUT (Fig. S3e) ([2]; c0 = 5 (axis unlabelled)): 1.522
AV (Fig. S3e) ([2]; c0 = 5 (axis unlabelled)): 3.81
APG (Fig. S3e) ([2]; c0 = 10 (axis unlabelled)): 2.801
AUT (Fig. S3e) ([2]; c0 = 10 (axis unlabelled)): 1.622
AV (Fig. S3e) ([2]; c0 = 10 (axis unlabelled)): 4.423
APG (Fig. S3e) ([2]; c0 = 15 (axis unlabelled)): 3.21
AUT (Fig. S3e) ([2]; c0 = 15 (axis unlabelled)): 1.42
AV (Fig. S3e) ([2]; c0 = 15 (axis unlabelled)): 4.63
APG (Fig. S3e) ([2]; c0 = 20 (axis unlabelled)): 2.614
AUT (Fig. S3e) ([2]; c0 = 20 (axis unlabelled)): 2.2085
AV (Fig. S3e) ([2]; c0 = 20 (axis unlabelled)): 4.823
APG (Fig. S3e) ([2]; c0 = 25 (axis unlabelled)): 2.9327
AUT (Fig. S3e) ([2]; c0 = 25 (axis unlabelled)): 2.406
AV (Fig. S3e) ([2]; c0 = 25 (axis unlabelled)): 5.339
APG (Fig. S3e) ([2]; c0 = 30 (axis unlabelled)): 1.904
AUT (Fig. S3e) ([2]; c0 = 30 (axis unlabelled)): 2.071
AV (Fig. S3e) ([2]; c0 = 30 (axis unlabelled)): 3.975
APG (Fig. S3e) ([2]; c0 = 40 (axis unlabelled)): 3.037
AUT (Fig. S3e) ([2]; c0 = 40 (axis unlabelled)): 2.167
AV (Fig. S3e) ([2]; c0 = 40 (axis unlabelled)): 5.204
APG (Fig. S3e) ([2]; c0 = 50 (axis unlabelled)): 3.658
AUT (Fig. S3e) ([2]; c0 = 50 (axis unlabelled)): 0.5267
AV (Fig. S3e) ([2]; c0 = 50 (axis unlabelled)): 4.185
CMA activity, mean (Fig. S2c) ([3]; concentration 0.02): 24.0456
CMA activity, mean (Fig. S2c) ([3]; concentration 0.2): 28.2677
CMA activity, mean (Fig. S2c) ([3]; concentration 2): 18.5469
CMA activation in human cells ([3]; in words): efficiently activated CMA
